Source: PubChem BioAssay AID2060884 (Molecular Pharmacology Branch, DTP, NCI, 2025)

Tested on: NCI-H929 complex spheroids, viability % test/control
Assay: Anticancer human tumor NCI-H929 cell line growth inhibition [RAS];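 note: compound exposure lasted seven days before viability was read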;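 for viability, T/C: 100% = DMSO vehicle control viability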
Details: for IC50: curve of first compound; for viability, T/C: stronger effect = lower value
How it was run: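 Tumour cells grown as complex spheroids with HUVEC endothelial cells and mesenchymal stem cells, treated with RAS pathway inhibitor combinations. Each agent spans half-log steps from near clinical Cmax, or 10 microM where Cmax is unknown.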

[1] = second compound 0.000949 µM, first compound 0.0316 µM
[2] = second compound 0.000949 µM, first compound 0.1 µM
[3] = second compound 0.000949 µM, first compound 0.316 µM
[4] = second compound 0.000949 µM, first compound 1 µM
[5] = second compound 0.003 µM, first compound 0.0316 µM
[6] = second compound 0.003 µM, first compound 0.1 µM
[7] = second compound 0.003 µM, first compound 0.316 µM
[8] = second compound 0.003 µM, first compound 1 µM
[9] = second compound 0.00949 µM, first compound 0.0316 µM
[10] = second compound 0.00949 µM, first compound 0.1 µM
[11] = second compound 0.00949 µM, first compound 0.316 µM
[12] = second compound 0.00949 µM, first compound 1 µM
[13] = second compound 0.03 µM, first compound 0.0316 µM
[14] = second compound 0.03 µM, first compound 0.1 µM
[15] = second compound 0.03 µM, first compound 0.316 µM
[16] = second compound 0.03 µM, first compound 1 µM
[17] = second compound 0.0949 µM, first compound 0.0316 µM
[18] = second compound 0.0949 µM, first compound 0.1 µM
[19] = second compound 0.0949 µM, first compound 0.316 µM
[20] = second compound 0.0949 µM, first compound 1 µM
[21] = second compound 0.3 µM, first compound 0.0316 µM
[22] = second compound 0.3 µM, first compound 0.1 µM
[23] = second compound 0.3 µM, first compound 0.316 µM
[24] = second compound 0.3 µM, first compound 1 µM

Compound: CCC(CC)c1cc(NC2CCC(N)C2)n2nccc2n1 (stereo unspecified) + C#Cc1c(F)ccc2cc(O)cc(-c3ncc4c(N5CC6CCC(C5)N6)nc(OCC56CCCN5CC(F)C6)nc4c3F)c12
- IC50 (second compound 0.0316 µM): 1790 nM
- IC50 (second compound 0.1 µM): 1800 nM
- IC50 (second compound 0.316 µM): 1790 nM
- IC50 (second compound 1 µM): 1780 nM
- IC50 (second compound 3.16 µM): 1790 nM
- IC50 (second compound 10 µM): 1820 nM
- viability, T/C (second compound 0.0316 µM, first compound 0.0316 µM): 95.1%
- viability, T/C (second compound 0.0316 µM, first compound 0.1 µM): 95.2%
- viability, T/C (second compound 0.0316 µM, first compound 0.316 µM): 101%
- viability, T/C (second compound 0.0316 µM, first compound 1 µM): 109%
- viability, T/C (second compound 0.0316 µM, first compound 3.16 µM): 1.07%
- viability, T/C (second compound 0.0316 µM, first compound 10 µM): 0.31%
- viability, T/C (second compound 0.1 µM, first compound 0.0316 µM): 97.2%
- viability, T/C (second compound 0.1 µM, first compound 0.1 µM): 97.7%
- viability, T/C (second compound 0.1 µM, first compound 0.316 µM): 99.7%
- viability, T/C (second compound 0.1 µM, first compound 1 µM): 110%
- viability, T/C (second compound 0.1 µM, first compound 3.16 µM): 1.11%
- viability, T/C (second compound 0.1 µM, first compound 10 µM): 0.27%
- viability, T/C (second compound 0.316 µM, first compound 0.0316 µM): 95.4%
- viability, T/C (second compound 0.316 µM, first compound 0.1 µM): 98.1%
- viability, T/C (second compound 0.316 µM, first compound 0.316 µM): 97.6%
- viability, T/C (second compound 0.316 µM, first compound 1 µM): 113%
- viability, T/C (second compound 0.316 µM, first compound 3.16 µM): 0.58%
- viability, T/C (second compound 0.316 µM, first compound 10 µM): 0.23%
- viability, T/C (second compound 1 µM, first compound 0.0316 µM): 93.8%
- viability, T/C (second compound 1 µM, first compound 0.1 µM): 95.7%
- viability, T/C (second compound 1 µM, first compound 0.316 µM): 99.7%
- viability, T/C (second compound 1 µM, first compound 1 µM): 111%
- viability, T/C (second compound 1 µM, first compound 3.16 µM): 0.22%
- viability, T/C (second compound 1 µM, first compound 10 µM): 0.66%
- viability, T/C (second compound 3.16 µM, first compound 0.0316 µM): 94.1%
- viability, T/C (second compound 3.16 µM, first compound 0.1 µM): 98%
- viability, T/C (second compound 3.16 µM, first compound 0.316 µM): 96.4%
- viability, T/C (second compound 3.16 µM, first compound 1 µM): 113%
- viability, T/C (second compound 3.16 µM, first compound 3.16 µM): 1.09%
- viability, T/C (second compound 3.16 µM, first compound 10 µM): 0.81%
- viability, T/C (second compound 10 µM, first compound 0.0316 µM): 102%
- viability, T/C (second compound 10 µM, first compound 0.1 µM): 101%
- viability, T/C (second compound 10 µM, first compound 0.316 µM): 99.1%
- viability, T/C (second compound 10 µM, first compound 1 µM): 111%
- viability, T/C (second compound 10 µM, first compound 3.16 µM): 0.7%
- viability, T/C (second compound 10 µM, first compound 10 µM): 0.12%

Compound: O=C(c1ccc(F)c(F)c1Nc1ccc(I)cc1F)N1CC(O)([C@@H]2CCCCN2)C1 + CCn1c(-c2cccnc2C(C)OC)c2c3cc(ccc31)N1CCOC(CC(NC(=O)C(C(C)C)N(C)C(=O)C3(F)CCN(C(=O)C#CC(C)(C)N(C)C)CC3)C(=O)N3CCCC(N3)C(=O)OCC(C)(C)C2)C1
- IC50 (second compound 0.000949 µM): 663 nM
- IC50 (second compound 0.003 µM): 688 nM
- IC50 (second compound 0.00949 µM): 686 nM
- IC50 (second compound 0.03 µM): 661 nM
- IC50 (second compound 0.0949 µM): 636 nM
- IC50 (second compound 0.3 µM): 597 nM
- viability, T/C (second compound 0.000949 µM, first compound 0.00316 µM): 109%
- viability, T/C (second compound 0.000949 µM, first compound 0.01 µM): 97.9%
- viability, T/C [1]: 103%
- viability, T/C [2]: 92.5%
- viability, T/C [3]: 98.3%
- viability, T/C [4]: 23.2%
- viability, T/C (second compound 0.003 µM, first compound 0.00316 µM): 99.2%
- viability, T/C (second compound 0.003 µM, first compound 0.01 µM): 102%
- viability, T/C [5]: 101%
- viability, T/C [6]: 93.7%
- viability, T/C [7]: 98.4%
- viability, T/C [8]: 26.8%
- viability, T/C (second compound 0.00949 µM, first compound 0.00316 µM): 97.2%
- viability, T/C (second compound 0.00949 µM, first compound 0.01 µM): 102%
- viability, T/C [9]: 104%
- viability, T/C [10]: 95.1%
- viability, T/C [11]: 101%
- viability, T/C [12]: 25.5%
- viability, T/C (second compound 0.03 µM, first compound 0.00316 µM): 98.6%
- viability, T/C (second compound 0.03 µM, first compound 0.01 µM): 100%
- viability, T/C [13]: 102%
- viability, T/C [14]: 96.9%
- viability, T/C [15]: 101%
- viability, T/C [16]: 21.8%
- viability, T/C (second compound 0.0949 µM, first compound 0.00316 µM): 96.6%
- viability, T/C (second compound 0.0949 µM, first compound 0.01 µM): 99.7%
- viability, T/C [17]: 101%
- viability, T/C [18]: 98.4%
- viability, T/C [19]: 103%
- viability, T/C [20]: 17.7%
- viability, T/C (second compound 0.3 µM, first compound 0.00316 µM): 100%
- viability, T/C (second compound 0.3 µM, first compound 0.01 µM): 101%
- viability, T/C [21]: 101%
- viability, T/C [22]: 100%
- viability, T/C [23]: 105%
- viability, T/C [24]: 8.18%

Compound: CC(Nc1ccc2c(c1)OCCn1cc(N3C(=O)OCC3C(F)F)nc1-2)C(N)=O (stereo unspecified) + CCn1c(-c2cc(N3CCN(C)CC3)cnc2C(C)OC)c2c3cc(ccc31)-c1csc(n1)CC(NC(=O)C1CC1C)C(=O)N1CCCC(N1)C(=O)OCC(C)(C)C2
- IC50 (second compound 0.000949 µM): 5990 nM
- IC50 (second compound 0.003 µM): 5260 nM
- IC50 (second compound 0.00949 µM): 1470 nM
- IC50 (second compound 0.03 µM): < 31.6 nM
- IC50 (second compound 0.0949 µM): < 31.6 nM
- IC50 (second compound 0.3 µM): < 31.6 nM
- viability, T/C [1]: 100%
- viability, T/C [2]: 97.5%
- viability, T/C [3]: 109%
- viability, T/C [4]: 97.9%
- viability, T/C (second compound 0.000949 µM, first compound 3.16 µM): 86.2%
- viability, T/C (second compound 0.000949 µM, first compound 10 µM): 20.9%
- viability, T/C [5]: 94.3%
- viability, T/C [6]: 103%
- viability, T/C [7]: 107%
- viability, T/C [8]: 102%
- viability, T/C (second compound 0.003 µM, first compound 3.16 µM): 78.5%
- viability, T/C (second compound 0.003 µM, first compound 10 µM): 14.2%
- viability, T/C [9]: 110%
- viability, T/C [10]: 114%
- viability, T/C [11]: 102%
- viability, T/C [12]: 61.2%
- viability, T/C (second compound 0.00949 µM, first compound 3.16 µM): 24.8%
- viability, T/C (second compound 0.00949 µM, first compound 10 µM): 2.76%
- viability, T/C [13]: 32.1%
- viability, T/C [14]: 9.9%
- viability, T/C [15]: 4.54%
- viability, T/C [16]: 2.25%
- viability, T/C (second compound 0.03 µM, first compound 3.16 µM): 0.96%
- viability, T/C (second compound 0.03 µM, first compound 10 µM): 0.2%
- viability, T/C [17]: 1.56%
- viability, T/C [18]: 0.81%
- viability, T/C [19]: 0.54%
- viability, T/C [20]: 0.47%
- viability, T/C (second compound 0.0949 µM, first compound 3.16 µM): 0.37%
- viability, T/C (second compound 0.0949 µM, first compound 10 µM): 0.1%
- viability, T/C [21]: 0.89%
- viability, T/C [22]: 0.73%
- viability, T/C [23]: 0.48%
- viability, T/C [24]: 0.29%
- viability, T/C (second compound 0.3 µM, first compound 3.16 µM): 0.33%
- viability, T/C (second compound 0.3 µM, first compound 10 µM): 0.12%
